Experimental data: ChEMBL document CHEMBL5357023, “Synthesis and Evaluation of Benzylamine Inhibitors of Neuropathogenic Naegleria fowleri "Brain-Eating" Amoeba” (ACS Med Chem Lett, 2024)
In brackets after ≈: the same amount, converted by molar mass.

Legend:
SH-SY5Y [1] = assay: Cytotoxicity against human SH-SY5Y cells assessed as reduction in cell viability at 20 uM incubated for 72 hrs by celltiter glow assay; type: functional
Naegleria fowleri [2] = assay: Anti-ameobic activity against Naegleria fowleri NF69 ATCC 30215 assessed as growth inhibition incubated for 48 hrs relative to control; type: functional, organism-based; details: for growth inhibition (GI): time 48 hrs
Naegleria fowleri [3] = assay: Anti-ameobic activity against Naegleria fowleri NF69 ATCC 30215 incubated for 48 hrs; type: functional, organism-based; details: NF69 ATCC 30215, 48 h
SH-SY5Y [4] = assay: Cytotoxicity against human SH-SY5Y cells assessed as reduction in cell viability at 1 uM incubated for 72 hrs by celltiter glow assay; type: functional
[5] = Kinetic solubility of compound in phosphate buffer at pH 7.4 incubated for 24 hrs by HPLC analysis; type: physicochemical; details: read-out: Kinetic_solubility
[6] = Lipophilicity, log D of the compound in octanol/phosphate buffer at pH 7.4 incubated for 2 mins by LC-MS analysis; type: physicochemical
SH-SY5Y [7] = assay: Cytotoxicity against human SH-SY5Y cells assessed as reduction in cell viability incubated for 72 hrs by celltiter glow assay; type: functional
[8] = Microsomal stability in CD-1 mouse liver microsome assessed as half life preincubated for 60 mins followed by NADPH addition and measured after 60 mins by HPLC analysis; type: ADME; details: liver microsomes, time 120 min
[9] = Permeability of compound incubated for 18 hrs by PAMPA assay; type: ADME; details: read-out: permeability
[10] = Stability in CD-1 mouse plasma assessed as parent compound remaining incubated for 20 mins by LC-MS analysis; type: ADME, cell-free; details: read-out: Stability
[11] = Plasma protein binding in CD-1 mouse measured for 4 hrs by LC-MS/MS analysis; type: ADME, cell-free; details: read-out: PPB (converted)

Compound	Cell viability remaining (SH-SY5Y [1]) [%]	EC50 (Naegleria fowleri [3]) [µM]	Activity (SH-SY5Y [4]) [%]	growth inhibition (GI) (Naegleria fowleri [2]) [%]	also measured
CC(C)(C)c1ccc(C(=O)Nc2cc(Cl)cnc2C(=O)[O-])cc1.[Na+]	61				EC50 (Naegleria fowleri [2]; Naegleria fowleri, NF69 ATCC 30215, 48 h): > 10 µM
CC(C)(C)c1ccc(CNc2cc(Cl)ncc2C(=O)O)cc1		> 10			
CC(C)(C)c1ccc(S(=O)(=O)Nc2cc(Cl)cnc2C(=O)O)cc1	100	> 10	100	16.5	
CC(C)(C)c1ccc(CNc2cc(Cl)cnc2C(N)=O)cc1	77	> 10	100	27.7	
CC(C)(C)c1ccc(CCc2cc(Cl)cnc2C(=O)O)cc1	85	> 10	100	0	
CC(Nc1cc(Cl)cnc1C(=O)O)c1ccc(C(C)(C)C)cc1 (stereo unspecified)	100	> 10	98	38.2	
COc1ccc(CNc2cc(Cl)cnc2C(=O)O)cc1	95	> 10	98	6.6	
CC(C)(C)c1ccc(CNc2cc(F)cnc2C(=O)O)cc1	73	5	91	99.5	
COc1ccc(CCNc2cc(Cl)cnc2C(=O)O)cc1	71	> 10	95	12.9	
CC(C)(C)c1ccc(CNc2cncc(Cl)c2)cc1	88	> 10	100	17.6	
CC(C)(C)c1ccc(CC(=O)Nc2cc(Cl)cnc2C(=O)O)cc1	19	> 10	76	9.9	
CC(C)(C)c1ccc(CNc2cc(Cl)c(-c3ccccc3)nc2C(=O)O)cc1	82	> 10	100	20.4	
CC(C)(C)c1ccc(CNc2cc(-c3ccccc3)cnc2C(=O)O)cc1	81	5	100	99.3	
CC(C)(C)c1ccc(Nc2cc(Cl)cnc2C(=O)O)cc1	57	> 10	98	4.5	
CC(C)(C)c1ccc(CNc2cc(Cl)cnc2C(=O)O)s1	90	> 10	95	0	
CC(C)(C)c1ccc(CCNc2cc(Cl)cnc2C(=O)O)cc1	100	3.3	95	99.8	
O=C(O)c1ncc(Cl)cc1NCCc1ccc(C(F)(F)F)cc1	57	> 10	59	44.8	
CC(C)(C)c1ccc(CNc2cc(N3CCOCC3)cnc2C(=O)O)cc1	75	11.5	85	52.8	
CC(C)(C)c1ccc(CNc2scnc2C(=O)O)cc1		> 10			

Compound	Cell viability remaining (SH-SY5Y [1]) [%]	EC50 (Naegleria fowleri [3]) [µM]	Activity (SH-SY5Y [4]) [%]	growth inhibition (GI) (Naegleria fowleri [2]) [%]	also measured
Cc1cnc(C(=O)O)c(NCc2ccc(C(C)(C)C)cc2)c1	98	1.4	96	100.4	solubility kinetic at 24 h [5]: 208 µM (≈ 62.1 µg/mL); logD at 2 min [6]: 2.4; CC50 (SH-SY5Y [7]): > 20 µM; half-life [8]: 49 min
CC(C)(C)c1ccc(CNc2cc(Cl)cnc2C#N)cc1	57	> 10	96	22.2	
CC(C)(C)c1ncc(CNc2cc(Cl)cnc2C(=O)O)s1	67	> 10	95	0	
COc1cnc(C(=O)O)c(NCCc2ccc(C(C)(C)C)cc2)c1	57	1.1	87	100.4	
O=C(O)c1ncc(Cl)cc1NCc1ccc(C(F)(F)F)cc1	66	> 10	78	29.5	
CC(C)(C)c1ccc(CNc2cc(Cl)c(Cl)nc2C(=O)O)cc1	100	> 10	100	12.3	
CC(C)(C)c1ccc(CNc2cc(Cl)c(Br)nc2C(=O)O)cc1	100	> 10	100	17.6	
CC(C)(C)c1ccc(CNc2cccnc2C(=O)O)cc1	89	3	100	99.2	
CC(C)(C)c1ccc(CNc2cncnc2C(=O)O)cc1		> 10			
COc1cnc(C(=O)O)c(NCc2ccc(C(C)(C)C)cc2)c1	100	0.92	98	100.3	Papp at 18 h [9]: 9.69 ×10⁻⁶ cm/s; solubility kinetic at 24 h [5]: 199 µM (≈ 62.6 µg/mL); remaining at 20 min [10]: 92%; logD at 2 min [6]: 2.3; fraction unbound at 4 h [11]: 0.003; CC50 (SH-SY5Y [7]): > 20 µM; half-life [8]: 72 min
CC(C)(C)c1ccc(CNc2cc(Cl)cnc2C(=O)O)cc1	53	6	85	98.8	Papp at 18 h [9]: 8.5 ×10⁻⁶ cm/s; solubility kinetic at 24 h [5]: 84 µM (≈ 26.8 µg/mL); remaining at 20 min [10]: 93%; logD at 2 min [6]: 2.3; fraction unbound at 4 h [11]: 0.009; CC50 (SH-SY5Y [7]): > 20 µM; half-life [8]: 38 min
O=C(O)c1ncc(Cl)cc1NCc1ccccc1	95	> 10	95	0	
O=C(O)c1ncc(Cl)cc1NCc1ccc(F)cc1	100	> 10	93	22.8	
CC(C)(C)c1ccc(CNc2cc(Br)cnc2C(=O)O)cc1	85	7.2	99	84.4	
Cc1ccc(CNc2cc(Cl)cnc2C(=O)O)cc1	94	> 10	100	0	
NC(=O)N1c2ccccc2C=Cc2ccccc21 [CARBAMAZEPINE]					Papp at 18 h [9]: 6.63 ×10⁻⁶ cm/s
CCCCCCCCCCCCCCCCOP(=O)([O-])OCC[N+](C)(C)C [MILTEFOSINE]		35.7			
CC(C)(C)NCC(O)COc1cccc2c1CC(O)C(O)C2 (stereo unspecified) [NADOLOL]					Papp at 18 h [9]: < 0.01 ×10⁻⁶ cm/s
